Measured values reported in patent US20250099393A1, “IONIZABLE LIPIDS, LIPID NANOPARTICLES, AND USES THEREOF” (Verily Life Sciences LLC, priority 2022, published 2025).

Assay: pKa of the ionizable lipid (ethanolamine headgroup)
Format: physicochemical
Conditions: uncharged at physiological pH

pKa: 6.2 to 6.8
Structure (SMILES): CCCCC/C=C\C/C=C\CCCCCCCCOC(=O)CCCCCCCN(CCO)CCCCCCCC(=O)OC(CCCCCCCC)CCCCCCCC [PCTA-1]
